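Cultured in 96-well plates, cells were exposed to test compound for 48 hours across five concentrations. At the TGI there is no net growth.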 Where a SMILES comes first, the peptide text is derived from it. [ ]: non-standard residue; d: D form. The star is where a group is joined. NMeF = CN[CH](Cc1ccccc1)C(=O)O; NMeV = CN[CH](C(=O)O)C(C)C; Boc = CC(C)(C)OC(=O)*; OBn = c1ccc(CO*)cc1
Experiments:
Assay in all cases: NCI-60 cell line screen, 48 h
COLO 205 colon = system: COLO 205 colon
EKVX NSCLC = system: EKVX NSCLC
HCT-15 colon = system: HCT-15 colon
MDA-N = system: MDA-N
MOLT-4 leukemia = system: MOLT-4 leukemia
NCI-H226 lung = system: NCI-H226 lung
OVCAR-8 ovarian = system: OVCAR-8 ovarian
SNB-75 CNS = system: SNB-75 CNS
TK-10 renal = system: TK-10 renal
UACC-62 melanoma = system: UACC-62 melanoma

## C=C1C(=O)[C@]23[C@H](O)[C@H]1CC[C@H]2[C@@]12CO[C@@]3(O)C[C@@H]1C(C)(C)CC[C@@H]2O
COLO 205 colon
  TGI: 7.52 µM
EKVX NSCLC
  TGI: > 25 µM
HCT-15 colon
  TGI: 19.6 µM
MDA-N
  TGI: > 25 µM
MOLT-4 leukemia
  TGI: > 25 µM
NCI-H226 lung
  TGI: > 25 µM
OVCAR-8 ovarian
  TGI: > 25 µM
SNB-75 CNS
  TGI: > 25 µM
TK-10 renal
  TGI: > 25 µM

## CC1=CC(=O)c2cccc(NC3=NCCO3)c21
COLO 205 colon
  TGI: > 100 µM
EKVX NSCLC
  TGI: > 100 µM
HCT-15 colon
  TGI: > 100 µM
MDA-N
  TGI: > 100 µM
MOLT-4 leukemia
  TGI: > 100 µM
NCI-H226 lung
  TGI: 87.2 µM
SNB-75 CNS
  TGI: > 100 µM
TK-10 renal
  TGI: > 100 µM
UACC-62 melanoma
  TGI: > 100 µM

## Cc1nc2ccccc2c(=O)n1NC(=O)Cc1ccccc1
COLO 205 colon
  TGI: > 100 µM
EKVX NSCLC
  TGI: > 100 µM
MDA-N
  TGI: > 100 µM
MOLT-4 leukemia
  TGI: > 100 µM
NCI-H226 lung
  TGI: > 100 µM
OVCAR-8 ovarian
  TGI: > 100 µM
SNB-75 CNS
  TGI: > 100 µM
TK-10 renal
  TGI: > 100 µM
UACC-62 melanoma
  TGI: > 100 µM

## COC(=O)C[C@H](COCc1ccccc1)NC(=O)C[C@H](COCc1ccccc1)NC(=O)C[C@H](COCc1ccccc1)NC(=O)OC(C)(C)C
COLO 205 colon
  TGI: > 100 µM
EKVX NSCLC
  TGI: > 100 µM
HCT-15 colon
  TGI: > 100 µM
MDA-N
  TGI: > 100 µM
MOLT-4 leukemia
  TGI: > 100 µM
NCI-H226 lung
  TGI: > 100 µM
OVCAR-8 ovarian
  TGI: > 100 µM
SNB-75 CNS
  TGI: 38 µM
UACC-62 melanoma
  TGI: > 100 µM

## COC(=O)C1=C(OC(=O)/C(=C/c2ccc(Cl)cc2)c2ccccc2)C(C(=O)OC)[C@@]2(O)[C@@H](C(=O)OC)[C@H](C)C[C@@H]1[C@@H]2C(=O)OC (stereo partly drawn)
COLO 205 colon
  TGI: > 100 µM
EKVX NSCLC
  TGI: > 100 µM
HCT-15 colon
  TGI: > 100 µM
MOLT-4 leukemia
  TGI: > 100 µM
NCI-H226 lung
  TGI: > 100 µM
OVCAR-8 ovarian
  TGI: > 100 µM
SNB-75 CNS
  TGI: > 100 µM
TK-10 renal
  TGI: > 100 µM
UACC-62 melanoma
  TGI: > 100 µM

## CC(=O)c1ccc2c(c1)oc(=O)n2CCN(C)C
COLO 205 colon
  TGI: > 100 µM
EKVX NSCLC
  TGI: > 100 µM
HCT-15 colon
  TGI: > 100 µM
MOLT-4 leukemia
  TGI: > 100 µM
NCI-H226 lung
  TGI: > 100 µM
OVCAR-8 ovarian
  TGI: > 100 µM
SNB-75 CNS
  TGI: > 100 µM
TK-10 renal
  TGI: > 100 µM
UACC-62 melanoma
  TGI: > 100 µM

## Brc1cccc(C2(CCCC3(c4cccc(Br)n4)OCCO3)OCCO2)n1
COLO 205 colon
  TGI: > 100 µM
EKVX NSCLC
  TGI: > 100 µM
HCT-15 colon
  TGI: > 100 µM
MDA-N
  TGI: > 100 µM
MOLT-4 leukemia
  TGI: > 100 µM
NCI-H226 lung
  TGI: > 100 µM
SNB-75 CNS
  TGI: 84 µM
TK-10 renal
  TGI: > 100 µM

## CCC(=N\NC(N)=S)/C(C)=N/O
COLO 205 colon
  TGI: > 100 µM
EKVX NSCLC
  TGI: > 100 µM
HCT-15 colon
  TGI: > 100 µM
MDA-N
  TGI: > 100 µM
NCI-H226 lung
  TGI: > 100 µM
OVCAR-8 ovarian
  TGI: > 100 µM
TK-10 renal
  TGI: > 100 µM
UACC-62 melanoma
  TGI: > 100 µM

## CC(NC(=O)C(C)C(=O)NCc1ccc(C(F)(F)F)cc1)C(N)=O (stereo not drawn)
COLO 205 colon
  TGI: > 100 µM
EKVX NSCLC
  TGI: > 100 µM
HCT-15 colon
  TGI: > 100 µM
MDA-N
  TGI: > 100 µM
MOLT-4 leukemia
  TGI: > 100 µM
NCI-H226 lung
  TGI: > 100 µM
OVCAR-8 ovarian
  TGI: > 100 µM
SNB-75 CNS
  TGI: > 100 µM
UACC-62 melanoma
  TGI: > 100 µM

## CC(C)C(NC(=O)OC(C)(C)C)C(=O)N(C)C(Cc1ccccc1)C(=O)N(C)C(C(=O)N(C)C(C(=O)OCc1ccccc1)C(C)C)C(C)C (stereo not drawn) (Boc-V[NMeF][NMeV][NMeV]-OBn; configuration not given here)
COLO 205 colon
  TGI: > 100 µM
EKVX NSCLC
  TGI: > 100 µM
HCT-15 colon
  TGI: > 100 µM
MOLT-4 leukemia
  TGI: > 100 µM
NCI-H226 lung
  TGI: > 100 µM
OVCAR-8 ovarian
  TGI: > 100 µM
TK-10 renal
  TGI: > 100 µM
UACC-62 melanoma
  TGI: > 100 µM

## CC1NOC(NS(=O)(=O)c2ccc(N=Nc3c(O)c(C(=O)O)cc4ccccc34)cc2)C1C (stereo not drawn)
COLO 205 colon
  TGI: > 100 µM
EKVX NSCLC
  TGI: > 100 µM
HCT-15 colon
  TGI: > 100 µM
MOLT-4 leukemia
  TGI: > 100 µM
NCI-H226 lung
  TGI: > 100 µM
OVCAR-8 ovarian
  TGI: > 100 µM
SNB-75 CNS
  TGI: > 100 µM
TK-10 renal
  TGI: > 100 µM
UACC-62 melanoma
  TGI: > 100 µM

## c1ccc(C(CCN2CCCC2)c2ccccn2)cc1 (stereo not drawn)
COLO 205 colon
  TGI: > 100 µM
EKVX NSCLC
  TGI: > 100 µM
HCT-15 colon
  TGI: > 100 µM
MDA-N
  TGI: > 100 µM
NCI-H226 lung
  TGI: > 100 µM
OVCAR-8 ovarian
  TGI: > 100 µM
SNB-75 CNS
  TGI: > 100 µM
TK-10 renal
  TGI: > 100 µM
UACC-62 melanoma
  TGI: > 100 µM

## CCN(CC)C(=S)SNCCc1ccc(S(N)(=O)=O)cc1
COLO 205 colon
  TGI: > 100 µM
EKVX NSCLC
  TGI: 40 µM
HCT-15 colon
  TGI: 38.5 µM
MDA-N
  TGI: 40.6 µM
NCI-H226 lung
  TGI: > 84.7 µM
OVCAR-8 ovarian
  TGI: 25.2 µM
SNB-75 CNS
  TGI: 27 µM
TK-10 renal
  TGI: 42.5 µM
UACC-62 melanoma
  TGI: > 94.1 µM

## CCN(CC)C(=O)c1c(N2CCOCC2)cc(N(CC)CC)oc1=O
COLO 205 colon
  TGI: > 100 µM
EKVX NSCLC
  TGI: > 100 µM
HCT-15 colon
  TGI: > 100 µM
MOLT-4 leukemia
  TGI: > 100 µM
NCI-H226 lung
  TGI: > 100 µM
OVCAR-8 ovarian
  TGI: > 100 µM
SNB-75 CNS
  TGI: > 100 µM
TK-10 renal
  TGI: > 100 µM
UACC-62 melanoma
  TGI: > 100 µM

## Cc1ccc(NC(=O)c2cccc([N+](=O)[O-])c2O)c(C)c1
COLO 205 colon
  TGI: > 100 µM
EKVX NSCLC
  TGI: 98.6 µM
MOLT-4 leukemia
  TGI: > 100 µM
NCI-H226 lung
  TGI: > 100 µM
OVCAR-8 ovarian
  TGI: > 100 µM
SNB-75 CNS
  TGI: > 100 µM
UACC-62 melanoma
  TGI: > 100 µM

## CCCCCCC(CCl)c1sc(-c2csc(CCNC(=O)OC(C)(C)C)n2)nc1C(=O)OC (stereo not drawn)
COLO 205 colon
  TGI: > 100 µM
EKVX NSCLC
  TGI: > 100 µM
HCT-15 colon
  TGI: 73.5 µM
MDA-N
  TGI: 87.9 µM
MOLT-4 leukemia
  TGI: 24.2 µM
OVCAR-8 ovarian
  TGI: > 100 µM
TK-10 renal
  TGI: > 100 µM
UACC-62 melanoma
  TGI: 38.9 µM

## O=c1c2cc(-c3ccccc3)cnc2sn1-c1ccc([N+](=O)[O-])cc1
COLO 205 colon
  TGI: > 100 µM
EKVX NSCLC
  TGI: > 100 µM
HCT-15 colon
  TGI: > 100 µM
MDA-N
  TGI: > 100 µM
MOLT-4 leukemia
  TGI: > 100 µM
NCI-H226 lung
  TGI: > 100 µM
OVCAR-8 ovarian
  TGI: > 100 µM
SNB-75 CNS
  TGI: > 100 µM
UACC-62 melanoma
  TGI: > 100 µM

## Cc1ccc([N+](=O)[O-])cc1S(=O)(=O)Nc1ccc(C2=NN(c3ccc([N+](=O)[O-])cc3[N+](=O)[O-])C(c3ccccc3O)C2)cc1 (stereo not drawn)
COLO 205 colon
  TGI: > 100 µM
EKVX NSCLC
  TGI: 90.6 µM
HCT-15 colon
  TGI: > 100 µM
MDA-N
  TGI: > 100 µM
MOLT-4 leukemia
  TGI: > 100 µM
NCI-H226 lung
  TGI: > 100 µM
OVCAR-8 ovarian
  TGI: > 100 µM
SNB-75 CNS
  TGI: > 100 µM
TK-10 renal
  TGI: > 100 µM

## c1ccc(C(=NNc2nc3ccccc3[nH]2)c2ccccn2)nc1
COLO 205 colon
  TGI: 16.1 µM
EKVX NSCLC
  TGI: 3.38 µM
HCT-15 colon
  TGI: > 100 µM
MDA-N
  TGI: > 100 µM
MOLT-4 leukemia
  TGI: 0.062 µM
NCI-H226 lung
  TGI: 0.448 µM
OVCAR-8 ovarian
  TGI: > 33.2 µM

## CC(=O)NC1C(OCc2ccccc2)OC(CO)C(O)C1OCC(=O)NC(C)C(=O)NC(CCC(=O)NCCCCCC(=O)Nc1ccc2c(c1)CN1C(=O)c3ccccc3C1=N2)C(N)=O (stereo not drawn)
COLO 205 colon
  TGI: > 100 µM
EKVX NSCLC
  TGI: > 100 µM
HCT-15 colon
  TGI: > 100 µM
MDA-N
  TGI: > 100 µM
MOLT-4 leukemia
  TGI: > 100 µM
OVCAR-8 ovarian
  TGI: > 100 µM
SNB-75 CNS
  TGI: > 100 µM
TK-10 renal
  TGI: > 100 µM
UACC-62 melanoma
  TGI: > 100 µM

## CN(C)CCCNC(=O)c1cc(NC(=O)c2cc(NC(=O)c3cc(NC(=O)CCCn4ccc(CO)c4CO)cn3C)cn2C)cn1C
COLO 205 colon
  TGI: 53.1 µM
EKVX NSCLC
  TGI: > 100 µM
HCT-15 colon
  TGI: > 100 µM
MDA-N
  TGI: > 100 µM
MOLT-4 leukemia
  TGI: > 100 µM
NCI-H226 lung
  TGI: 13.9 µM
SNB-75 CNS
  TGI: 44.4 µM
TK-10 renal
  TGI: 72.4 µM
UACC-62 melanoma
  TGI: 37.9 µM

## c1ccc([C@H]2CN3CCSC3=N2)cc1
COLO 205 colon
  TGI: > 100 µM
EKVX NSCLC
  TGI: > 100 µM
HCT-15 colon
  TGI: > 100 µM
MDA-N
  TGI: > 100 µM
MOLT-4 leukemia
  TGI: > 100 µM
NCI-H226 lung
  TGI: > 100 µM
OVCAR-8 ovarian
  TGI: > 100 µM
SNB-75 CNS
  TGI: > 100 µM
UACC-62 melanoma
  TGI: > 100 µM

## ClCc1c(-c2ccccc2)nn(-c2ccccc2)c1CCl
COLO 205 colon
  TGI: 25.5 µM
HCT-15 colon
  TGI: 27 µM
MDA-N
  TGI: 24.2 µM
NCI-H226 lung
  TGI: 72.8 µM
OVCAR-8 ovarian
  TGI: 30.8 µM
SNB-75 CNS
  TGI: 16.7 µM
TK-10 renal
  TGI: 29.2 µM
UACC-62 melanoma
  TGI: 21.4 µM

— PubChem BioAssay (NCI)
